In patent US10047084B2, “Imidazolone derivatives, pharmaceutical compositions and uses thereof” (BEIJING FORELANDPHARMA CO. LTD., priority 2013, dated 2018) one finds IC50 data, which are given here for 4 compounds.

The target of one assay is mTOR kinase (Homo sapiens (Human), UniProt P42345). As to the kind of experiment: mTOR kinase activity assay (TR-FRET, GFP-4EBP1 substrate). The assay is classed as biochemical. As to conditions: read-out: Enzyme (mTOR) IC50. On the technique in general: Time-resolved FRET reads energy transfer from a long-lived donor to a nearby acceptor.
Chain of mTOR kinase (P42345 1360-2549): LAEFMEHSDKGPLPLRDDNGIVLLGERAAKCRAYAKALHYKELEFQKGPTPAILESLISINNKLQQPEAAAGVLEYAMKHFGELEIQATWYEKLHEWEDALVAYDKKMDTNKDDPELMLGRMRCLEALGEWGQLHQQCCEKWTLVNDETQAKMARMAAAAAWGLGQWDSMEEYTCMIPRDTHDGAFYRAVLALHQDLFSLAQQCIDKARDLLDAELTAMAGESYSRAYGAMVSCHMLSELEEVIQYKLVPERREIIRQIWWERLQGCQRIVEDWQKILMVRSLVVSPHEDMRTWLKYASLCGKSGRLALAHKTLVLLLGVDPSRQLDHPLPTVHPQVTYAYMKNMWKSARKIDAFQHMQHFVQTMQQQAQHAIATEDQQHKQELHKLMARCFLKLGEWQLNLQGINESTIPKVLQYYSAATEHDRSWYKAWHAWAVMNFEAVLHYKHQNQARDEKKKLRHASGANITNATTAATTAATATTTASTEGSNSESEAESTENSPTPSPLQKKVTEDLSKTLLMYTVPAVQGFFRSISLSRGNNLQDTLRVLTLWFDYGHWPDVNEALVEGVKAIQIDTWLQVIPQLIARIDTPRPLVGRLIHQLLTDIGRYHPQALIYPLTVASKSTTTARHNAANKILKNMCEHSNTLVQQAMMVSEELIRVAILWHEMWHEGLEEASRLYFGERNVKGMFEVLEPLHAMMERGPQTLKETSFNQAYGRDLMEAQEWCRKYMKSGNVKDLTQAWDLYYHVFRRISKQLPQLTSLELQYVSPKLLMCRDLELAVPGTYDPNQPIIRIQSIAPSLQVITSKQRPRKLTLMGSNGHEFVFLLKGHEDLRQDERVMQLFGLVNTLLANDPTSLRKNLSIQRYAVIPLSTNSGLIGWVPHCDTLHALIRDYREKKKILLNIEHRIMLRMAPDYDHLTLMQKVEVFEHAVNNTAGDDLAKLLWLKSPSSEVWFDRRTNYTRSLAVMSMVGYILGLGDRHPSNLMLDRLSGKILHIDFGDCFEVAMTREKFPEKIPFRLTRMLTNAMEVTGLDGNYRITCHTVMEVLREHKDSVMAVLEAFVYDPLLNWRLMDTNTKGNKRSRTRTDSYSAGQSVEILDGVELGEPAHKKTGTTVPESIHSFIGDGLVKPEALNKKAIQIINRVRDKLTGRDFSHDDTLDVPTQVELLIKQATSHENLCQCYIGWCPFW
Assay [1] concerns the target PI3K-alpha (PIK3CA/PIK3R1) (Homo sapiens (Human), UniProt P42336). As to the kind of experiment: PI3K-alpha enzyme activity assay (ADP Glo). The assay is classed as biochemical. As to conditions: read-out: Activity of inhibiting PI3K enzyme IC50. An excerpt: 3. PI3K-alpha Enzyme Activity Assay: PI3K alpha-ADP Glo Assay was employed. In the determination of PI3K enzyme activity, the detection kit supplied by Promega (Promega, Cat #: V9101) was used to detect the inhibition effect of the compounds on the activity of PI3K enzyme. The adenosine diphosphate produced during the whole enzymic reactions was quantified. The resulting values were used to calculate the activity of PI3K (Table 1).
3.1 Detection reagents: PIK3CA/PIK3R1 purchased from Invitrogen (Cat #: PV4788): The active kinase was diluted with kinase diluent III; and mixed with bovine serum albumin (BSA) in a ratio of 1:4 (5×dilution). The final BSA concentration was 50 ng/ml; and the compositions of Kinase Detection Solution I were: 25 mM MOPS, pH7.2, 12.5 mM β-glycerophosphate, 25 mM magnesium chloride, 5 mM EGTA, and 2 mM EDTA. Before use, 0.25 mM DTT was added to Kinase Detection Solution I; 250 μM adenosine triphosphate (ATP) Detection solution: 0.55 mg of ATP was dissolved in 4 ml of Kinase Detection Solution I, subdivided in 200 μl/vial and stored at −20° C. Substrate: Phosphatidylinositol (4,5) bis-phosphate; this substrate was diluted with Kinase Detection Solution I to a concentration of 125 μM. Final concentrations were: 10 μM PIP2, 10 μM ATP, 1% DMSO, and 0.0005-10 μM compounds.
a) Experimental Procedure: • 3.2.1 50 μL of the compounds diluted with dimethyl sulfoxide (DMSO) at a concentration of 100 μM were added to the 384-well dilution plate. The compounds were diluted with dimethyl sulfo de (DMSO) in a ratio of 1:3 (10 dilution concentrations plus 1 zero concentration). • 3.2.2 5 μL of the diluted compounds were transferred to the corresponding 384-well black Proxi plate (containing 47.5 μL of detection solution/well), and shaked for several seconds. • 3.2.3 2 μL of 2.5×PI3K working solution was added to 384-well black Proxi plate. • 3.2.4 2 μL of the diluted compounds were added to the detection plate (3 wells for each concentration). • 3.2.5 The plate was incubated at room temperature for 2 h. • 3.2.6 5 μL of ADP Glo Reagent was added. • 3.2.7 The plate was incubated at room temperature for 40 minutes. • 3.2.8 10 μL of the kinase detection reagent was added. • 3.2.9 The plate was incubated at room temperature for 40 minutes. • 3.2.10 The activity was detected by using Envision Reader.
The inhibition of the mTOR […] activity by the compounds ranges in 0.5 to several hundreds nanomoles, see Table 1.
On the technique in general: ADP-Glo first removes unused ATP, then detects ADP through luciferase.

Bounds are passed on as bounds.

Chain of PI3K-alpha (PIK3CA/PIK3R1) (P42336 whole entry, looked up): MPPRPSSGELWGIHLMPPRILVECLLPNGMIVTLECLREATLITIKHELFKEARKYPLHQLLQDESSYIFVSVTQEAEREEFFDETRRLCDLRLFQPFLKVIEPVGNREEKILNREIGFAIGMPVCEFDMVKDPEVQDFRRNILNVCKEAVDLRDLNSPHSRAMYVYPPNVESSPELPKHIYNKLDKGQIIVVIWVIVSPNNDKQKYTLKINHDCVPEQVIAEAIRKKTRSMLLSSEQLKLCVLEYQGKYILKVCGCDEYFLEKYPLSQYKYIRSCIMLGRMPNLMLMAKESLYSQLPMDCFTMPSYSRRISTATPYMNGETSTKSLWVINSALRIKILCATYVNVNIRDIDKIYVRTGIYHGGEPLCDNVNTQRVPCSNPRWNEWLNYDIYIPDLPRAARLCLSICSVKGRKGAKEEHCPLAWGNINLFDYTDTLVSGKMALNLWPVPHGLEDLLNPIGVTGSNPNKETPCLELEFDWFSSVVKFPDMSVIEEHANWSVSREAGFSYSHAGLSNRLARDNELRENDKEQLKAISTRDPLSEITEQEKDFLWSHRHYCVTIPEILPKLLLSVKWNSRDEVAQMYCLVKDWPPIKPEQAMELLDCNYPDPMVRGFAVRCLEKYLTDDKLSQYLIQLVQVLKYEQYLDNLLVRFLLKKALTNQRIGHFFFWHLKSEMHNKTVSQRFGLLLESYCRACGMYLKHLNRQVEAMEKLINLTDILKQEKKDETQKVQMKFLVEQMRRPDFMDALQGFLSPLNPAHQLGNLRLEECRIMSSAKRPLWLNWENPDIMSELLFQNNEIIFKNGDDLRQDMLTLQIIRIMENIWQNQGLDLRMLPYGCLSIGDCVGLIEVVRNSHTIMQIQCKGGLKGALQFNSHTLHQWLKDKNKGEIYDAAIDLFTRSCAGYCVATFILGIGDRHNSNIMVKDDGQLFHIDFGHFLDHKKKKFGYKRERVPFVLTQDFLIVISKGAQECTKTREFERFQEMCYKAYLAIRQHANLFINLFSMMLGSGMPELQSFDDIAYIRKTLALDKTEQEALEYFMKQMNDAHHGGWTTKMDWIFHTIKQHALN
Chain of PI3K-alpha (PIK3CA/PIK3R1) (P27986 whole entry partner, looked up): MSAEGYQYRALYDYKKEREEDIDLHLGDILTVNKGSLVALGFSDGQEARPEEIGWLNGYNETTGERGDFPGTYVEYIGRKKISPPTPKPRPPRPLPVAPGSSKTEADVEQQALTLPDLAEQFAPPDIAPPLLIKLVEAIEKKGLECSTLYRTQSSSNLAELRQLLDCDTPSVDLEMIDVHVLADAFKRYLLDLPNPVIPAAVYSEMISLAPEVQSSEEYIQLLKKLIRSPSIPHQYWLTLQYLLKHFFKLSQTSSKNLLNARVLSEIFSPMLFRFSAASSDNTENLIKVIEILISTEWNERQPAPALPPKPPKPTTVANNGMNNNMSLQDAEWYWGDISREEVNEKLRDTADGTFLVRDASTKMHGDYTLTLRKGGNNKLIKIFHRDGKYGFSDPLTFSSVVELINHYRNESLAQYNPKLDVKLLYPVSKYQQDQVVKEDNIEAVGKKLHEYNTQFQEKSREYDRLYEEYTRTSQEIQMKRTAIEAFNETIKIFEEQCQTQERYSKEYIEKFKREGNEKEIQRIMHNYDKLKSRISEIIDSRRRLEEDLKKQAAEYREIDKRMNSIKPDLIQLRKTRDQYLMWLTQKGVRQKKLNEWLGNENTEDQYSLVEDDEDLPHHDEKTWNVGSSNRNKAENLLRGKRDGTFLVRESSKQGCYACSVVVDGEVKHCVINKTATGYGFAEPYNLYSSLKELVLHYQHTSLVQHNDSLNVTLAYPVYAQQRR

With `Cn1cc(-c2ccc(-c3ccc4ncc5c(c4c3)n(C3CCCN(S(C)(=O)=O)C3)c(=O)n5C)cn2)cn1` (centres unmarked) [Example 3, 3-methyl-8-(6-(1-methyl-1H-pyrazol-4-yl)pyridin-3-yl)-1-(1-(methanesulfonyl)piperidin-3-yl)-1H-imidazo[4,5-c]quinolin-2(3H)-one], the IC50 (on mTOR kinase; in assay [1]) was less than 10 nM in each case.

Turning to `Cn1cc(-c2ccc(-c3ccc4ncc5c(c4c3)n([C@H]3CC[C@@H](O)CC3)c(=O)n5C)cn2)cn1` [Example 18, 1-((1s,4s)-4-hydroxycyclohexyl)-3-methyl-8-(6-(1-methyl-1H-pyrazol-4-yl)pyridin-3-yl)-1H-imidazo[4,5-c]quinolin-2(3H)-one], the IC50 (at mTOR kinase; in assay [1]) was less than 10 nM each time.

Turning to `Cn1cc(-c2ccc(-c3ccc4ncc5c(c4c3)n([C@H]3CCN(S(C)(=O)=O)C3)c(=O)n5C)cn2)cn1` [Example 28, (S)-3-methyl-8-(6-(1-methyl-1H-pyrazol-4-yl)pyridin-3-yl)-1-(1-(methanesulfonyl)pyrrolidin-3-yl)-1H-imidazo[4,5-c]quinolin-2(3H)-one], the IC50 (at mTOR kinase; in assay [1]) was less than 10 nM throughout.

Regarding `Cn1cc(-c2ccc(-c3ccc4ncc5c(c4c3)n([C@@H]3CCCN(S(C)(=O)=O)C3)c(=O)n5C)cn2)cn1` [Example 31, (R)-3-methyl-8-(6-(1-methyl-1H-pyrazol-4-yl)pyridin-3-yl)-1-(1-(methanesulfonyl)piperidin-3-yl)-1H-imidazo[4,5-c]quinolin-2(3H)-one], the IC50 (on mTOR kinase; in assay [1]) was less than 10 nM each time.
